Test results taken from patent publication US9808434B2, “Compound for treating cancer and diabetes” (CITY OF HOPE, priority 2011, dated 2017).
pIC50: −log10 of the molar value.

Columns and labels:
A2058 = assay: Colony formation assay, A2058; type: cell-based, human
Protocol: Cell survival was evaluated using a standard colony-forming assay. […] After 7 or 10 days, adherent colonies were fixed, stained with 0.5% methylene blue for 30 min and colonies were counted using the Innotech Alpha Imager HP (91).

U251 = assay: Glioma ATP viability assay, U251; type: cell-based; conditions: Homo sapiens, U-251, 72 h
Protocol: (§1) Cells of each cell line (U251, U87, PBT-017, PBT018, PBT003 and PBT028) were treated with various concentrations (0˜100 μM) of COH-SR4 for 72 hours. Cell viabilities were determined by ATP viability assays. Data were represented as a ratio to vehicle (DMSO) control, and plotted as mean±SEM (n=12) obtained from 2˜3 experiments (FIG. 34A).
as §1, with “(U87, U251,” for “(U251, U87, PBT-017, PBT018,”, “PVT-017)” for “PBT028)”, “2-3” for “2˜3”, “34B).” for “34A).”
Cells of each cell line were treated with various concentrations (0˜100 μM) of COH-SR4 or various concentrations (0˜1000 μM) of TMZ for 72 hours. Cell viabilities were determined by ATP viability assays. Data were represented as a ratio to untreated cells as control, and plotted as mean±SEM (n=12) obtained from 2˜3 experiments (FIGS. 43A-B).

A2058 cells = assay: Mitochondrial membrane depolarization, TMRE; type: cell-based, human; conditions: 5 μM
Protocol: Cells (4×10^5/well in 6-well plates) cultured overnight were pre-incubated with the fluorescent indicator of MMP tetramethylrhodamine ester (TMRE, 200 nM) or DMSO control for 30 min at 37° C. in CO2 incubator. Cells were washed with pre-warmed normal DMEM media, and test compounds were added with fresh media for the indicated times. Cells were then trypsinized, collected, centrifuged for 5 min at 800×g, and washed once in pre-warmed PBS-0.2% BSA. Cells were then resuspended in the same buffer prior to flow cytometric analysis. A total of 30,000 cells were counted per sample and data was analyzed by Cyan ADP flow cytometer with excitation/emission of 488 nm/572 nm (Beckman Coulter, Inc., Brea, Calif.). For measurements of membrane potential in isolated mouse liver mitochondria, the organelles were pre-incubated with 200 nM TMRE in MASSRO buffer (MAS buffer supplemented with 10 mM succinate, 1 μM rotenone, and 1 μM oligomycin) for 20 min at 25° C. The mitochondria were centrifuged for 5 min at 3000×g and resuspended in MASSRO buffer. Mitochondria were then added to MASSRO buffer containing the indicated concentrations of COH-SR4, FCCP or DMSO vehicle control and incubated at room temperature for 15 min. […] TMRE fluorescence was measured with a microplate reader (Tecan Infinite M200 Pro, Tecan Group Ltd., Switzerland) using an excitation emission of 545ex/580em. […]

AMPK = AMPK activation in HL-60 cells, Western blot; type: cell-based, human; conditions: 1 hour
Protocol: Activation of AMPK was associated with the phosphorylation of the α-subunit on Thr-172 of as assessed using phospho-specific antibodies (FIGS. 10A-B). AMPK activation also leads to the increased phosphorylation of the target protein acetyl-CoA carboxylase (ACC) (FIG. 10B).
Cells of each cell lines (Hela, HL-60, and 3T3-L1) were treated for 1 hour with a test compound (COH-SR4, COH-SR9, COH-SR16, or COH-SR18) at a concentration of 1 μM, 3 μM, or 5 μM, or AICAR (5-aminoimidazole-4-carboxamideriboside, an AMPK agonist used as positive control) at a concentration of 500 μM, or none of the above (the untreated cells as negative control). Total cell lysates from the untreated cells and the cells treated with a test compound or AICAR were analyzed by Western blot assay using specific antibodies against phospho-AMPK, phospho-ACC, total AMPK and total ACC.

[1] = COH-SR4 in mice serum, LC-MS/MS; type: in vivo, mouse; conditions: 4 mg/kg b.w. oral, alternate day, 8 weeks; blood within 2 h of final dose
Protocol: Mice (n=3 each for control and COH-SR4 treatment) were administered either 0.2 mL corn oil or 100 μg COH-SR4/0.2 mL corn oil/mice (4 mg/kg b.w.) by oral gavage on alternate days for 8 weeks. On the last day, the blood was collected within 2 h after final dosage. To 50 μL serum was added 0.5 μL 5 μg/μL 6D-SR4 standard in DMSO and 500 μL ethyl acetate. The samples were vortexed for 1 min and then spun down in a bench-top centrifuge for 2 min. Then 400 μL of the organic layer was collected, evaporated to dryness and redisolved in 500 μL methanol for analysis. After an initial concentration test, 50 μL were taken and diluted to 2 mL with methanol for final analysis. […]
COH-SR4 and 6D-SR4 were separated by HPLC using an Agilent Zorbax 0.5×150 mm C18, 5 μm column with a flow rate of 50 μL/min and a gradient of 65% B to 95% B over 4 min, then 2 min at 95% B and 1 min back to 65% B. Buffer A was 5 mM ammonium formate and buffer B was 5 mM ammonium formate in methanol. The elute from the column was introduced into an Agilent 6410 triple quadrupole tandem mass spectrometer by electrospray ionization (ESI) through a capillary maintained at 4 kV, using 6 L/min nitrogen nebulizing gas at 350° C. and 15 psi, fragmentor voltage=190 V. The following transitions were monitored in positive ion mode: 344>127.1 and 355>130.1 (collision energy=28 V), 344>161.9 and 355>164.9 (C.E.=20 V) for COH-SR4 and 6dSR4. […]

O=C(Nc1cc(Cl)cc(Cl)c1)Nc1cc(Cl)cc(Cl)c1 [COH-SR4, 1,3-bis(3,5-dichlorophenyl) urea]
colony formation (A2058; 5 μM): 43±7% | colony formation (A2058; 10 μM, vs untreated control): 37±4% | pIC50 (U251; Table 1): 5.68 | pIC50 (U251; Table 2): 5.70 | mitochondrial membrane depolarization (TMRE fluorescence) (A2058 cells): induced mitochondrial membrane depolarization in a time-dependent manner | AMPK activation (AMPK): activated AMPK | serum concentration [1]: 342 ± 44 ng/mL | serum concentration (equivalent) [1]: 1000 ± 220 nM
